Measurements as given in patent publication US20210369684A1 (MOUNT TAM THERAPEUTICS, INC., priority 2018, published 2021).
Where “and” joins values, the source holds several entries; their conditions need not be identical. Identical values can stand only once.

Experiment: Whole blood concentrations after IP administration to mice (LC-MS/MS)
Assay type: in vivo, mouse
Method: Shown below are whole blood concentrations following administration of the compound of Formula II to mice. The compound of Formula II was administered to mice at 2 mg/kg or 10 mg/kg for three days and the concentration of the compound in whole blood determined. These determinations were made using protein precipitation, liquid chromatography (LC), and mass spectrometry (MS/MS). Ten μl aliquots of whole blood and matrix calibration standards were distributed in a 96-well plate; 10 μl aliquots of blank matrix for matrix blanks and control blanks were included as controls. Ten μl of water was added to each sample followed by vortexing. One hundred sixty […] of internal standard was added to each sample except the matrix blanks; 160 μl 70:30 water:acetonitrile (ACN) was added to matrix blanks. This was followed by a […]. One hundred fifty μl of the resultant supernatant was then transferred to a new 96-well plate and the samples blown to dryness at 35° C. The resultant product was then reconstituted with 90 μl ACN.

SMILES: CO[C@H]1C[C@@H]2CC[C@@H](C)[C@@](O)(C2)C(=O)C(=O)N2CCCC[C@H]2C(=O)O[C@H]([C@H](C)C[C@H]2C[C@H]3C[C@@H]2C[C@@H]3O)CC(=O)[C@H](C)/C=C(\C)[C@@H](O)[C@@H](OC)C(=O)[C@H](C)C[C@H](C)/C=C/C=C/C=C/1C [Formula II, C37-[(1R,2S,4R,5S)-5-hyhroxybicyclo[2.2.1]heptane] rapamycin]
- Formula II Concentrations in Mouse Whole Blood (2 mg/kg IP QD x 3 days, Day 1, 1.00 h, individual animals 7, 8, 9): 452 ng/mL and 380 ng/mL and 317 ng/mL
- Formula II Concentrations in Mouse Whole Blood, Mean (2 mg/kg IP QD x 3 days, Day 1, 1.00 h): 383 ng/mL
- Formula II Concentrations in Mouse Whole Blood (2 mg/kg IP QD x 3 days, Day 1, 2.00 h, individual animals 7, 8, 9): 415 ng/mL (2×) and 378 ng/mL
- Formula II Concentrations in Mouse Whole Blood, Mean (2 mg/kg IP QD x 3 days, Day 1, 2.00 h): 403 ng/mL
- Formula II Concentrations in Mouse Whole Blood (2 mg/kg IP QD x 3 days, Day 1, 6.00 h, individual animals 7, 8, 9): 382 ng/mL and 520 ng/mL and 490 ng/mL
- Formula II Concentrations in Mouse Whole Blood, Mean (2 mg/kg IP QD x 3 days, Day 1, 6.00 h): 464 ng/mL
- Formula II Concentrations in Mouse Whole Blood (2 mg/kg IP QD x 3 days, Day 1, 24.0 h, individual animals 7, 8, 9): 12.2 ng/mL and 18.4 ng/mL and 14.7 ng/mL
- Formula II Concentrations in Mouse Whole Blood, Mean (2 mg/kg IP QD x 3 days, Day 1, 24.0 h): 15.1 ng/mL
- Formula II Concentrations in Mouse Whole Blood (2 mg/kg IP QD x 3 days, Day 2, 1.00 h, individual animals 7, 8, 9): 481 ng/mL and 208 ng/mL and 524 ng/mL
- Formula II Concentrations in Mouse Whole Blood, Mean (2 mg/kg IP QD x 3 days, Day 2, 1.00 h): 404 ng/mL
- Formula II Concentrations in Mouse Whole Blood (2 mg/kg IP QD x 3 days, Day 2, 2.00 h, individual animals 7, 8, 9): 501 ng/mL and 233 ng/mL and 570 ng/mL
- Formula II Concentrations in Mouse Whole Blood, Mean (2 mg/kg IP QD x 3 days, Day 2, 2.00 h): 435 ng/mL
- Formula II Concentrations in Mouse Whole Blood (2 mg/kg IP QD x 3 days, Day 2, 6.00 h, individual animals 7, 8, 9): 553 ng/mL and 632 ng/mL and 552 ng/mL
- Formula II Concentrations in Mouse Whole Blood, Mean (2 mg/kg IP QD x 3 days, Day 2, 6.00 h): 579 ng/mL
- Formula II Concentrations in Mouse Whole Blood (2 mg/kg IP QD x 3 days, Day 2, 24.0 h, individual animals 7, 8, 9): 15.3 ng/mL and 80.6 ng/mL and 35.2 ng/mL
- Formula II Concentrations in Mouse Whole Blood, Mean (2 mg/kg IP QD x 3 days, Day 2, 24.0 h): 43.7 ng/mL
- Formula II Concentrations in Mouse Whole Blood (2 mg/kg IP QD x 3 days, Day 3, 1.00 h, individual animals 7, 8, 9): 628 ng/mL and 726 ng/mL and 600 ng/mL
- Formula II Concentrations in Mouse Whole Blood, Mean (2 mg/kg IP QD x 3 days, Day 3, 1.00 h): 651 ng/mL
- Formula II Concentrations in Mouse Whole Blood (2 mg/kg IP QD x 3 days, Day 3, 2.00 h, individual animals 7, 8, 9): 478 ng/mL and 489 ng/mL and 535 ng/mL
- Formula II Concentrations in Mouse Whole Blood, Mean (2 mg/kg IP QD x 3 days, Day 3, 2.00 h): 501 ng/mL
- Formula II Concentrations in Mouse Whole Blood (2 mg/kg IP QD x 3 days, Day 3, 6.00 h, individual animals 7, 8, 9): 416 ng/mL and 745 ng/mL and 604 ng/mL
- Formula II Concentrations in Mouse Whole Blood, Mean (2 mg/kg IP QD x 3 days, Day 3, 6.00 h): 588 ng/mL
- Formula II Concentrations in Mouse Whole Blood (2 mg/kg IP QD x 3 days, Day 3, 24.0 h, individual animals 7, 8, 9): 17.6 ng/mL and 59.6 ng/mL and 48.6 ng/mL
- Formula II Concentrations in Mouse Whole Blood, Mean (2 mg/kg IP QD x 3 days, Day 3, 24.0 h): 41.9 ng/mL
- concentrations in whole blood over time (in words) (2 mg/kg or 10 mg/kg IP QD for three days, mice): sufficient concentrations in whole blood over time
- Formula II Concentrations in Mouse Whole Blood (10 mg/kg IP QD x 3 days, Day 1, 1.00 h, individual animals 10, 11, 12): 560 ng/mL and 641 ng/mL and 769 ng/mL
- Formula II Concentrations in Mouse Whole Blood, Mean (10 mg/kg IP QD x 3 days, Day 1, 1.00 h): 657 ng/mL
- Formula II Concentrations in Mouse Whole Blood (10 mg/kg IP QD x 3 days, Day 1, 2.00 h, individual animals 10, 11, 12): 793 ng/mL
- Formula II Concentrations in Mouse Whole Blood (10 mg/kg IP QD x 3 days, Day 1, 6.00 h, individual animals 10, 11, 12): 1000 ng/mL and 1950 ng/mL and 544 ng/mL
- Formula II Concentrations in Mouse Whole Blood, Mean (10 mg/kg IP QD x 3 days, Day 1, 6.00 h): 1165 ng/mL
- Formula II Concentrations in Mouse Whole Blood (10 mg/kg IP QD x 3 days, Day 1, 24.0 h, individual animals 10, 11, 12): 222 ng/mL and 181 ng/mL and 210 ng/mL
